Data on 6 compounds can be found in patent US4537895A, “Isoquinoline derivatives” (EGYT Gyogyszervegyeszeti Gyar, priority 1982, dated 1985).

Data set [1] has as its system catalepsy induced by Haloperidol / tetrabenazine. Nature of the data set: Comparison of anti-haloperidol (Test 2) and anti-tetrabenazine (Test 4) activity. It counts as in vivo, mice. The conditions noted are these: for Quotient of the ED values of Columns 2 and 4: ED Test 2 (haloperidol) : ED Test 4 (tetrabenazine); for Antidepressant versus antiparkinson profile (in words): from quotient ED2:ED4. As to the method: (§1) 2. S.c. dose which inhibits the catalepsy induced by a 13 umole/kg dose of Haloperidol, in 50% of the mice.
(§2) 4. S.c. dose which inhibits the catalepsy induced by a 110 umole/kg dose of tetrabenazine, in 50% of the mice.
(§3) The acute toxicity data are determined in mice. Tests 2-6 are also carried out in mice. The doses are expressed in micromole/kg. The therapeutical index (TI) is the LD/ED quotient.
On comparing the dopaminerg type anti-haloperidol test and the anti-tetrabenazine activity being characteristic of the antidepressive effect the following can be stated:
The quotient of the ED values of Columns 2 and 4 is the highest for Compound I (55:13=4.2). […] The said quotient is high in the case of Nomifensine (1.6), Compound D (1.8), Compound E (2.7) and Compound F (1.7).

In the next data set the test system is spontaneous motility. Nature of the data set: Test 3: spontaneous motility. It counts as in vivo. The conditions noted are these: for TI (Test 3), LD/ED quotient: LD50 / ED of Test 3; for minimal effective dose: Mus musculus, ip. As to the method:
3. Lowest i.p. dose which still increases or decreases the spontaneous motility of the mice.
as §3
In Test 3 "+=motility increase" and "-=motility decrease."

The test system of another data set is stereotypy. Description: Test 8: induction of stereotypy. The conditions noted are these: Rattus norvegicus, sc, rats; ">" = inactive in the given dose; read-out: Lowest s.c. dose which still induces stereotypy (Test 8). It counts as in vivo. As to the method: 8. The lowest s.c. dose which still induces stereotypy, in rats.
(§4) Tests 7-10 are carried out in cats and rats, the doses are expressed in micromole/kg.
(§5) Tests 2, 8, 9 and 10 are suitable for the evaluation of the dopaminerg stimulating effect of the test compounds (potential anti-parkinson agent). Tests 4, 5, 6 and 7 give information about the catecholamine-uptake inhibiting effect (potential antidepressive activity).

The test system of data set [2] is catalepsy induced by tetrabenazine. Description: Test 4: inhibition of tetrabenazine-induced catalepsy. It counts as in vivo. The conditions noted are these: for TI (Test 4), LD/ED quotient: LD50 / ED of Test 4; for ED50: Mus musculus, sc, read-out: ED, s.c. dose which inhibits the catalepsy induced by tetrabenazine in 50% of the mice (Test 4). The method, then: as §2, §3, §5

Data set [3] can be described thus: Overall comparison with Nomifensine in the pharmacological tests. It counts as in vivo. The conditions noted are these: for Therapeutical index (in words) / Activity compared with Nomifensine (in words): all tests. As to the method: The pharmacological activity of the compounds of the present invention is determined by the following tests:
as §3, §4

Data set [4] concerns decrease of the rectal temperature caused by reserpine. Description: Test 6: reserpine-induced decrease of rectal temperature. It counts as in vivo. The conditions noted are these: for TI (Test 6), LD/ED quotient: LD50 / ED of Test 6; for minimal effective dose: Mus musculus, sc, read-out: ED, lowest s.c. dose which still hinders the decrease of the rectal temperature caused by reserpine (Test 6). The method, then: 6. The lowest s.c. dose which still hinders the decrease of the rectal temperature caused by the administration of a 1,6 umole/kg dose of reserpine.
as §3, §5

Data set [5] concerns catalepsy induced by Haloperidol. Nature of the data set: Test 2: inhibition of haloperidol-induced catalepsy. It counts as in vivo. The conditions noted are these: for TI (Test 2), LD/ED quotient: LD50 / ED of Test 2; for ED50: Mus musculus, sc, read-out: ED, s.c. dose which inhibits the catalepsy induced by Haloperidol in 50% of the mice (Test 2). As to the method: as §1, §3, §5

The nature of data set [6]: Acute toxicity, s.c., LD50. The conditions noted are these: mouse, in vivo; for LD50 at 96 h: sc, mice, 96 hour observation. Set-up: species or system mice. The method, then:
as §3

Data set [7] concerns ptosis induced by tetrabenazine. Description: Test 5: inhibition of tetrabenazine-induced ptosis. It counts as in vivo. The conditions noted are these: for TI (Test 5), LD/ED quotient: LD50 / ED of Test 5; for ED50: Mus musculus, sc, read-out: ED, s.c. dose which inhibits the ptosis induced by tetrabenazine in 50% of the mice (Test 5). The method, then: 5. S.c. dose which inhibits the ptosis induced by a dose of 79 umole/kg of tetrabenazine, in 50% of the mice.
as §3, §5

Data set [8] concerns blood pressure and nictitating membrane. Description: Test 7: blood pressure and nictitating membrane effect. The conditions noted are these: Felis catus, iv, cats; ">" = inactive in the given dose; read-out: Lowest i.v. dose which still increases the blood pressure and nictitating membrane effect (Test 7). It counts as in vivo. The method, then: as §4, §5
For a further data set, the system named is prolactine level. Description: Test 10: decrease of prolactine level in ovariectomised rats. It counts as in vivo. The conditions noted are these: Rattus norvegicus, 96 h, after 4 days treatment with oestradiol 0.073 umole/kg, read-out: Dose which induces a significant decrease of the prolactine level (Test 10). The method, then:
10. The dose which induces a significant decrease of the prolactine level after 4 days treatment with a dose of 0.073 umole/kg of oeastradiol, on three weeks earlier ovariectomised rats.
as §4, §5

Setting [9] is: read-out: ED, lowest i.p. dose which still decreases the spontaneous motility (Test 3, -).

Where a name gives a salt, the structure may show the parent alone. Read-outs that look alike come from different tables or passages of the source. Some results are limits rather than exact numbers.

Turning to `CCNCC(=O)Nc1cccc2c1CN(C)CC2c1ccc(C)cc1` (stereo not shown) [Compound H, 8-ethylamino-acetyl-amino-2-methyl-4-p-tolyl-1,2,3,4-tetrahydro-isoquinoline maleate], the “Quotient of the ED values of Columns 2 and 4” value (shortened to “Quotient … of Columns 2 and 4”) in data set [1] is given as 0,3. Besides, the “TI (Test 3), LD/ED quotient” value in the data set with spontaneous motility turned out to be 32. Further, the minimal effective dose came to 22 µmol/kg in the data set with spontaneous motility (setting [9]), 183 µmol/kg in the data set on stereotypy, 44 µmol/kg in data set [4] and 2.2 µmol/kg in data set [8]. The “TI (Test 4), LD/ED quotient” value in [2] is listed as 7. For the same compound, the ED50 worked out at 99 µmol/kg in data set [2], 33 µmol/kg in data set [5] and 12 µmol/kg in data set [7]. For the same compound, the “Therapeutical index (in words)” value in [3] is reported as “good therapeutical index”. Also, in data set [4], the “TI (Test 6), LD/ED quotient” value worked out at 16. In addition, the “TI (Test 2), LD/ED quotient” value in data set [5] came out at 21. The same compound displayed a median lethal dose (LD50) at 96 h in data set [6] of 706 µmol/kg. Also, the “TI (Test 5), LD/ED quotient” value in [7] was 59.
As for `CCCCNCC(=O)Nc1cccc2c1CN(C)CC2c1ccc(Cl)cc1` (stereo not shown) [Compound D, 8-butyl-amino-acetyl-amino-4-p-chloro-phenyl-2-methyl-1,2,3,4-tetrahydro-isoquinoline-maleate], the “Quotient … of Columns 2 and 4” value in [1] is listed as 1,8. In the data set on spontaneous motility, the “TI (Test 3), LD/ED quotient” value is on record as less than 16. In addition, the minimal effective dose in the data set with spontaneous motility (read-out: ED, lowest i.p. dose which still increases or decreases the spontaneous motility (Test 3, no sign)) is greater than 40 µmol/kg; with stereotypy it was 64 µmol/kg; in data set [4] it was 10 µmol/kg; in data set [8], 1 µmol/kg; with prolactine level, 36 µmol/kg. For the same compound, the “TI (Test 4), LD/ED quotient” value in data set [2] was determined as 24. The ED50 in data set [2] was 27 µmol/kg; in [5], 48 µmol/kg; in data set [7], 7.8 µmol/kg. For the same compound, the “TI (Test 6), LD/ED quotient” value in data set [4] was 64. In data set [4] (anti-reserpine test), the “Therapeutical index in the anti-reserpine test compared with Nomifensine (in words)” value is listed as “more favourable therapeutical index”. Also, the “TI (Test 2), LD/ED quotient” value in data set [5] is 13. The compound further displayed an LD50 at 96 h in data set [6] of 637 µmol/kg. Also, the “TI (Test 5), LD/ED quotient” value in data set [7] is on record as 82.
Regarding `CCNCC(=O)Nc1cccc2c1CN(C)CC2c1ccc(Cl)cc1` (stereo not shown) [Compound C, 8-ethylamino-acetyl-amino-4-p-chloro-phenyl-2-methyl-1,2,3,4-tetrahydroisoquinoline-maleate], in [1], the “Quotient … of Columns 2 and 4” value is listed as 1,0. Besides, the “TI (Test 3), LD/ED quotient” value with spontaneous motility came out at 16. Further, the minimal effective dose turned out to be 42 µmol/kg in the data set with spontaneous motility (setting [9]), 68 µmol/kg with stereotypy, 11 µmol/kg in data set [4] and 1.1 µmol/kg in [8]. Also, in data set [2], the “TI (Test 4), LD/ED quotient” value came out at 13. For the same compound, the ED50 was found to be 51 µmol/kg in data set [2], 53 µmol/kg in data set [5] and 14 µmol/kg in data set [7]. Further, in [3], the “Activity compared with Nomifensine (in words)” value is given as “surpasses the activity of Nomifensine in three tests”. In addition, the “TI (Test 6), LD/ED quotient” value in data set [4] is on record as 62. Further, in data set [5], the “TI (Test 2), LD/ED quotient” value amounted to 13. In [6], this compound showed an LD50 at 96 h of 686 µmol/kg. In [7], the “TI (Test 5), LD/ED quotient” value stood at 49.
`CN1Cc2c(N)cccc2C(c2ccccc2)C1` (stereo not shown) [Nomifensine, 8-amino-4-phenyl-2-methyl-1,2,3,4-tetrahydro-isoquinoline, reference compound]: the “Quotient … of Columns 2 and 4” value in data set [1] was 1,6. For the same compound, the “TI (Test 3), LD/ED quotient” value with spontaneous motility amounted to 40. For the same compound, the “Effect on spontaneous motility (in words)” value in the data set with spontaneous motility (mice) is recorded as “increases the spontaneous motility”. The minimal effective dose with stereotypy came to 23 µmol/kg; in [4] it was 28 µmol/kg; in [8], 1.4 µmol/kg; in the data set on prolactine level, 28 µmol/kg. Besides, in [2], the “TI (Test 4), LD/ED quotient” value was 30. Besides, the ED50 worked out at 37 µmol/kg in data set [2], 56 µmol/kg in [5] and 4.2 µmol/kg in data set [7]. Besides, in data set [4], the “TI (Test 6), LD/ED quotient” value worked out at 40. Also, the “TI (Test 2), LD/ED quotient” value in data set [5] turned out to be 20. In addition, the LD50 at 96 h in [6] was found to be 1130 µmol/kg. Also, in [7], the “TI (Test 5), LD/ED quotient” value was 268.
As for `CCOC(=O)Nc1cccc2c1CN(C)CC2c1ccc(Cl)cc1` (stereo not shown) [Compound I, 8-ethoxycarbonylamino-4-p-chloro-phenyl-2-methyl-1,2,3,4-tetrahydroisoquinoline], in data set [1], the “Quotient … of Columns 2 and 4” value was 4,2. Moreover, the “Antidepressant versus antiparkinson profile (in words)” value in data set [1] is on record as “relatively a stronger antidepressant than an antiparkinsone agent”. In the data set with spontaneous motility, the “TI (Test 3), LD/ED quotient” value came to 275. The minimal effective dose worked out at 7.9 µmol/kg in the data set with spontaneous motility (setting [9]); 21 µmol/kg in the data set on stereotypy; 26 µmol/kg in [4]; 1.3 µmol/kg in data set [8]; 26 µmol/kg in the data set on prolactine level. Moreover, the “TI (Test 4), LD/ED quotient” value in data set [2] was found to be 167. In addition, the ED50 was 13 µmol/kg in data set [2], 55 µmol/kg in data set [5] and 1.6 µmol/kg in data set [7]. Moreover, the “Activity compared with Nomifensine (in words)” value in [3] was “activity is higher than that of Nomifensine”. Further, the “Therapeutical index relative to that of Nomifensine” value in data set [3] (various tests) is listed as 2-6,8 times higher. In addition, in [4], the “TI (Test 6), LD/ED quotient” value came out at 84. In data set [5], the “TI (Test 2), LD/ED quotient” value turned out to be 40. Besides, the “Toxicity compared with Nomifensine (in words)” value in [6] is reported as “toxicity is much lower”. In addition, the LD50 at 96 h in [6] came to 2180 µmol/kg. In addition, the “TI (Test 5), LD/ED quotient” value in [7] worked out at 1360.
In the case of `CCCCNCC(=O)Nc1cccc2c1CN(C)CC2c1ccc(C)cc1` (stereo not shown) [Compound G, 8-butylamino-acetyl-amino-2-methyl-4-p-tolyl-1,2,3,4-tetrahydro-isoquinoline-maleate], in data set [1], the “Quotient … of Columns 2 and 4” value is given as 0,4; the “Antidepressant versus antiparkinson profile (in words)” value is “stronger anti-dopamine, anti-parkinsone activity”. Also, the “TI (Test 3), LD/ED quotient” value in the data set with spontaneous motility worked out at 66. Also, in the data set on spontaneous motility (setting [9]), the minimal effective dose is 10 µmol/kg. Also, in the data set with stereotypy, the minimal effective dose worked out at 108 µmol/kg. Further, in data set [2], the “TI (Test 4), LD/ED quotient” value is listed as 9 and the ED50 came to 71 µmol/kg. For the same compound, in data set [3], the “Activity compared with Nomifensine (in words)” value is “very high activity” and the “Therapeutical index (in words)” value is recorded as “good therapeutical index”. In data set [4], the “TI (Test 6), LD/ED quotient” value was 32 and the minimal effective dose is 21 µmol/kg. Further, in [5], the “TI (Test 2), LD/ED quotient” value was 23 and the ED50 amounted to 29 µmol/kg. For the same compound, the LD50 at 96 h in data set [6] came out at 664 µmol/kg. Further, in [7], the “TI (Test 5), LD/ED quotient” value is listed as 133 and the ED50 is 5 µmol/kg. For the same compound, the minimal effective dose in [8] stood at 2.1 µmol/kg.

As usually defined, the LD50 is the dose expected to kill half of the subjects tested. Lower therefore signals a more toxic substance.
